Results from PMC12703428, “Development of Granzyme A Turn‐ON Fluorescent Activity‐Based Probes” (Chembiochem, 2025).

Molecular target: T1, pro‐form of GzmA (without signal peptide) (Homo sapiens, UniProt P12544)
T1 construct: purchased R&D Systems 2905-SE-010
T1 sequence (P12544 29-262): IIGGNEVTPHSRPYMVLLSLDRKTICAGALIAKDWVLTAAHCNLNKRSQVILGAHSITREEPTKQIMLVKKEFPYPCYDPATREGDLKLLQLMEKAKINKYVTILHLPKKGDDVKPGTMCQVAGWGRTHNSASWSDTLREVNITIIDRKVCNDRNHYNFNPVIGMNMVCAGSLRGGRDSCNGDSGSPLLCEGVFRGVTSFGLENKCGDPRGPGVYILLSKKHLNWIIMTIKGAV
Experiment: In-gel fluorescence labeling of pro-form of hGzmA
Format: biochemical
Settings: probe 50 nM, 2 h, 37 °C
Method: Figure 3 GzmA ABPs covalently and competitively label active human and mouse GzmA. […] Recombinant hGzmA (100 nM) was incubated with varying concentrations of each ABP at 37 °C. […] Recombinant hGzmA (100 nM) was preincubated with covalent inhibitors 1 or 2 (5 μM) for 2 h, followed by labeling with ABPs 3 -5 (50 nM) for 2 h at 37 °C. Note: […] C) Structure of qABP 6. D) Quenched natures of 5 and 6. […] F) Labeling of mGzmA (1 μM) with 5 and 6 (1 μM, 24 h, 37 °C). […] Recorded fluorescence at Ex/Em: 380/460 nm for residual GzmA proteolytic activity. […] B. Cell culture and preparation of cell lysates All cell lines were cultured at 37 °C under 5% CO2 in a humidified atmosphere. […] The supernatant was collected, and protein concentration was measured using a Pierce BCA protein assay. […] In-gel fluorescence imaging […] […] In-gel fluorescence and SYPRO-Ruby staining images were acquired on a Typhoon FLA9500 instrument, while western blot images were acquired on an […] […] Conditions for probe/inhibitor treatment for in-gel fluorescence analysis: Inhibitors and probes were incubated with active (or pro-) GzmA followed by treatment with 4X SDS reducing sample buffer. […] 20 μL of each sample was loaded onto a 15% polyacrylamide gel, which was then subjected to electrophoresis followed by the acquisition of in-gel fluorescence images. […]

Substance: IGNR [compound 5]
- Labeling of pro-form of GzmA: No labeling
